Measurements: US10854312B2, “Selective peptide antagonists” (BIONIZ, LLC, priority 2013, dated 2020)
Entries after “also recorded” stand apart in the source; their conditions may differ. No end group written: not given here.

Experiments:
Assay type in all cases: cell-based
[1] = target: mouse GM-CSF (Mus musculus, UniProt P01587); experiment: PT-18β proliferation assay (3H-thymidine), non-γc cytokine GM-CSF; conditions: 1 nM mouse GM-CSF, 15 μM BNZ132-1
[2] = system: γc-cytokines; experiment: Target cytokine spectrum within the γc-family
[3] = target: mouse IL-3 (Mus musculus, UniProt P01586); experiment: PT-18β proliferation assay (3H-thymidine), non-γc cytokine IL-3; conditions: 1 nM mouse IL-3, 15 μM BNZ132-1
[4] = system: human IL-2; experiment: CTLL-2 proliferation assay (WST-1), IL-2; conditions: murine CTLL-2 cells, 1 nM human IL-2, BNZ132-1 50 and 500 nM, WST-1 OD450
Method: (§1) FIG. 6A-FIG. 6E presents inhibitory spectrum of BNZ132-1 over γc- and non-γc-cytokines. […] Neutralizing antibodies against each cytokine (R & D systems, 5 μg ml^−1) were included as controls. After 20 h, the cells were pulsed with WST-1 (Clontech) and OD450 of each well was measured after 6 h. A 19-mer scrambled peptide was used as a negative control at 5 μM. The experiments were conducted in triplicate (applies to all experiments in FIG. 6A-FIG. 6E). The result represents one of at least three independent experiments (applies to all experiments in FIG. 6A-FIG. 6E). […] In PT-18 proliferation assay, PT-18β or PT-18h21Rα cells were withdrawn of mouse IL-3 for 12 h before the experiment. Cells were then incubated with 1 nM of mouse IL-4, mouse IL-9, or mouse IL-21 in the presence or absence of the indicated doses (μM) of BNZ132-1. Neutralizing antibodies to each cytokine (5 μg ml^−1, except for anti-mouse IL-21 polyclonal antibody which was used at 15 μg ml−1) and a scrambled control peptide (5 μM) were included as negative controls. WST-1 assay was conducted as described above. […] In PT-18 h21Rα survival assay, PT-18h21Rα cells are described in the text. […] Both parental and hIL-21Rα positive PT-18 cells were washed and incubated without IL-3 for 12 h before the assay. […] The Y-axis represents the cpm (count per minute) values measured by a β-counter. […]

[5] = system: human IL-15; experiment: CTLL-2 proliferation assay (WST-1), IL-15; conditions: murine CTLL-2 cells, 1 nM human IL-15, BNZ132-1 50 and 500 nM, WST-1 OD450
Method: as §1

[6] = target: mouse stem cell factor (Mus musculus, UniProt P20826); experiment: PT-18β proliferation assay (3H-thymidine), non-γc cytokine SCF; conditions: 1 nM mouse stem cell factor, 15 μM BNZ132-1
[7] = target: human Flt-3 ligand (Homo sapiens, UniProt P49771); experiment: PT-18β proliferation assay (3H-thymidine), non-γc cytokine Flt-3 ligand; conditions: 1 nM human Flt-3 ligand, 15 μM BNZ132-1
Chain of human Flt-3 ligand (P49771 27-235): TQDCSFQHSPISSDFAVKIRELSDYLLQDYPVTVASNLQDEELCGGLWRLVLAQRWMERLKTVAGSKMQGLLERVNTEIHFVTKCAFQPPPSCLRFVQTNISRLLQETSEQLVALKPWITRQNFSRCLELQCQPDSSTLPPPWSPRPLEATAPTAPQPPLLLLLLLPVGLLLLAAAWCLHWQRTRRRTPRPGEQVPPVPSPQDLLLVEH

Chain of mouse stem cell factor (P20826 26-273): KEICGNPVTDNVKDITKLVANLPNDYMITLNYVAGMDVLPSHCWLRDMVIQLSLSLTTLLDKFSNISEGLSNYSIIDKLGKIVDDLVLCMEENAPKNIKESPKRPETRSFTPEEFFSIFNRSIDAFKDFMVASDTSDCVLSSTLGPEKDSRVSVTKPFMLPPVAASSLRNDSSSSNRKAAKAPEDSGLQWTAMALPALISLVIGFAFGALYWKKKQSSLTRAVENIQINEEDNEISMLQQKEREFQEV
Chain of mouse GM-CSF (P01587 18-141): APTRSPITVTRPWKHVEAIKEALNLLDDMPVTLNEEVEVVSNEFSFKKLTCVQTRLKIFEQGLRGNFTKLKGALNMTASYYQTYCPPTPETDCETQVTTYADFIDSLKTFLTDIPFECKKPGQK

## IKEFLQRFIHIVQSIINTS [BNZ132-1]
[1]
  inhibition of GM-CSF-induced proliferation of PT-18β cells: did not inhibit; also recorded: no inhibition; also recorded: no inhibition of non-γc cytokines
[2]; IL-4, IL-7 and IL-21
  γc-cytokines not inhibited: excludes IL-4,-7 or -21
[2]; summary statements, BNZ132-2 and -3 data not shown
  γc-cytokines inhibited: specifically inhibits IL-2, IL-15 and IL-9; also recorded: restricted to IL-2, -15, and -9
[3]
  inhibition of IL-3-induced proliferation of PT-18β cells: did not inhibit; also recorded: no inhibition; also recorded: no inhibition of non-γc cytokines
[4]
  inhibition of IL-2-induced proliferation of CTLL-2 cells: inhibited IL-2 and IL-15 with an equal efficacy; also recorded: efficiently inhibits; also recorded: inhibition of IL-2 and IL-15
[5]
  inhibition of IL-15-induced proliferation of CTLL-2 cells: inhibited IL-2 and IL-15 with an equal efficacy; also recorded: efficiently inhibits; also recorded: inhibition of IL-2 and IL-15
[6]
  inhibition of SCF-induced proliferation of PT-18β cells: did not inhibit; also recorded: no inhibition; also recorded: no inhibition of non-γc cytokines
[7]
  inhibition of Flt3-L-induced proliferation of PT-18β cells: did not inhibit; also recorded: no inhibition; also recorded: no inhibition of non-γc cytokines
